Data as given in patent publication US20250382344A1, “Soluble GLP1/GIP/NPY2 Receptor Triple Agonists” (Boehringer Ingelheim International GmH, priority 2024, published 2025).
Where two headings read alike, the source gives them in different places.

Key:
[1] = target: T1, hGIPR (Homo sapiens, UniProt P48546); test: hGIPR CreLuc assay in 0.5% and 100% plasma (CHO CRE-luciferase reporter cells); type: cell-based
T1 construct: expressed in transfected cells; host or cells: CHO CRE-luciferase reporter cells
T1 sequence (P48546 22-466): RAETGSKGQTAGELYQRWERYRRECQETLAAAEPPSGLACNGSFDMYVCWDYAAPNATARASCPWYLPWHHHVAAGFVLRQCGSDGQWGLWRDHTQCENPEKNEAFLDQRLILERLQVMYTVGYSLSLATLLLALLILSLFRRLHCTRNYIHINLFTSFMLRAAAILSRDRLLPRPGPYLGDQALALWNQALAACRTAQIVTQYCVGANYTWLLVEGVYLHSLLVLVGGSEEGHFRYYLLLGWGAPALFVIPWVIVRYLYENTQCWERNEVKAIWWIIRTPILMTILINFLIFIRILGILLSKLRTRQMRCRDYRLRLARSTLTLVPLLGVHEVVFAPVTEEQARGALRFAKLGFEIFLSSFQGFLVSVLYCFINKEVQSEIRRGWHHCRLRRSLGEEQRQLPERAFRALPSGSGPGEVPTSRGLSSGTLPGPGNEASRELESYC

[2] = Solubility in 0.1 M phosphate buffer at pH 7; type: physicochemical; conditions: 0.1 M phosphate buffer at pH 7, 10 mg/mL final peptide concentration, shaking 2 hours at room temperature, peptides as TFA-salts; measured sample pH 6.5-7.0
[3] = 0.5% human plasma, read-out: hGIPR 0.5% hP
[4] = hGIPR 0.5% hP (nM), 0.5% human plasma

| EC50 [1, 3] [nM] | solubility at 2 h [2] [µg/mL] | EC50 ([1]; 100% human plasma, read-out: hGIPR 100% hP) [nM] | SMILES | EC50 [1, 4] [nM] | EC50 ([1]; hGIPR 100% hP (nM), 100% human plasma) [nM] |
| --- | --- | --- | --- | --- | --- |
| 0.3 | 9000 |  | CC[C@H](C)[C@H](NC(=O)[C@H](CC(C)C)NC(=O)[C@H](Cc1c[nH]cn1)NC(=O)[C@H](CCCNC(=N)N)NC(=O)[C@@H](NC(=O)[C@H](Cc1ccccc1)NC(=O)[C@H](C)NC(=O)C(C)(C)NC(=O)[C@H](CCC(N)=O)NC(=O)[C@H](C)NC(=O)[C@H](CCC(N)=O)NC(=O)[C@H](CCCCN)NC(=O)[C@H](CCC(=O)O)NC(=O)[C@H](CC(C)C)NC(=O)C(C)(C)NC(=O)[C@@H](NC(=O)[C@H](CO)NC(=O)[C@H](Cc1ccc(O)cc1)NC(=O)[C@H](CC(=O)O)NC(=O)[C@H](CO)NC(=O)[C@@H](NC(=O)[C@H](Cc1ccccc1)NC(=O)[C@@H](NC(=O)CNC(=O)[C@H](CCC(=O)O)NC(=O)C(C)(C)NC(=O)[C@@H](N)Cc1ccc(O)cc1)[C@@H](C)O)[C@@H](C)O)[C@@H](C)CC)C(C)C)C(=O)N[C@@H](CC(N)=O)C(=O)N[C@@H](CCCCNC(=O)CC[C@H](NC(=O)[C@@H](N)CCCCNC(=O)CC[C@H](NC(=O)CC[C@H](NC(=O)CC[C@H](NC(=O)CC[C@H](NC(=O)CC[C@H](NC(=O)CCCCCCCCCCCCCCCCCCC(=O)O)C(=O)O)C(=O)O)C(=O)O)C(=O)O)C(=O)O)C(=O)O)C(=O)NC(C)(C)C(=O)N[C@H](C(=O)N[C@@H](CCCNC(=N)N)C(=O)N[C@@H](CCC(N)=O)C(=O)N[C@@H](CCCNC(=N)N)C(=O)N[C@@H](Cc1ccc(O)cc1)C(N)=O)[C@@H](C)O [Compound 94, Y-Aib-E-G-T-F-T-S-D-Y-S-I-Aib-L-E-K-Q-A-Q-Aib-A-F-V-R-H-L-I-N-K(1,3)-Aib-T-R-Q-R-Y-NH2.C20DA-gGlu-gGlu-gGlu-gGlu-gGlu-eLys-gGlu(1,2)] |  |  |
| 0.2 | 8200 |  | CC[C@H](C)[C@H](NC(=O)[C@H](CC(C)C)NC(=O)[C@H](Cc1c[nH]cn1)NC(=O)[C@H](CCCNC(=N)N)NC(=O)[C@@H](NC(=O)[C@H](Cc1ccccc1)NC(=O)[C@H](C)NC(=O)C(C)(C)NC(=O)[C@H](CCC(N)=O)NC(=O)[C@H](C)NC(=O)[C@H](CCC(N)=O)NC(=O)[C@H](CCCCN)NC(=O)[C@H](CCC(=O)O)NC(=O)[C@H](CC(C)C)NC(=O)C(C)(C)NC(=O)[C@@H](NC(=O)[C@H](CO)NC(=O)[C@H](Cc1ccc(O)cc1)NC(=O)[C@H](CC(=O)O)NC(=O)[C@H](CO)NC(=O)[C@@H](NC(=O)[C@H](Cc1ccccc1)NC(=O)[C@@H](NC(=O)CNC(=O)[C@H](CCC(=O)O)NC(=O)C(C)(C)NC(=O)[C@@H](N)Cc1ccc(O)cc1)[C@@H](C)O)[C@@H](C)O)[C@@H](C)CC)C(C)C)C(=O)N[C@@H](CC(N)=O)C(=O)N[C@@H](CCCCNC(=O)CC[C@H](NC(=O)CC[C@H](NC(=O)CC[C@H](NC(=O)[C@@H](N)CCCCNC(=O)CC[C@H](NC(=O)CC[C@H](NC(=O)CC[C@H](NC(=O)CCCCCCCCCCCCCCCCC(=O)O)C(=O)O)C(=O)O)C(=O)O)C(=O)O)C(=O)O)C(=O)O)C(=O)NC(C)(C)C(=O)N[C@H](C(=O)N[C@@H](CCCNC(=N)N)C(=O)N[C@@H](CCC(N)=O)C(=O)N[C@@H](CCCNC(=N)N)C(=O)N[C@@H](Cc1ccc(O)cc1)C(N)=O)[C@@H](C)O [Compound 168, Y-Aib-E-G-T-F-T-S-D-Y-S-I-Aib-L-E-K-Q-A-Q-Aib-A-F-V-R-H-L-I-N-K(1,3)-Aib-T-R-Q-R-Y-NH2.C18DA-gGlu-gGlu-gGlu-eLys-gGlu-gGlu-gGlu(1,2)] |  |  |

More lines, now with the values behind:

| SMILES | EC50 [1, 3] [nM] | solubility at 2 h [2] [µg/mL] | EC50 ([1]; 100% human plasma, read-out: hGIPR 100% hP) [nM] | EC50 [1, 4] [nM] | EC50 ([1]; hGIPR 100% hP (nM), 100% human plasma) [nM] |
| --- | --- | --- | --- | --- | --- |
| CC[C@H](C)[C@H](NC(=O)[C@H](CC(C)C)NC(=O)[C@H](Cc1c[nH]cn1)NC(=O)[C@H](CCCNC(=N)N)NC(=O)[C@@H](NC(=O)[C@H](Cc1ccccc1)NC(=O)[C@H](C)NC(=O)C(C)(C)NC(=O)[C@H](CCC(N)=O)NC(=O)[C@H](C)NC(=O)[C@H](CCC(N)=O)NC(=O)[C@H](CCCCN)NC(=O)[C@H](CCC(=O)O)NC(=O)[C@H](CC(C)C)NC(=O)C(C)(C)NC(=O)[C@@H](NC(=O)[C@H](CO)NC(=O)[C@H](Cc1ccc(O)cc1)NC(=O)[C@H](CC(=O)O)NC(=O)[C@H](CO)NC(=O)[C@@H](NC(=O)[C@H](Cc1ccccc1)NC(=O)[C@@H](NC(=O)CNC(=O)[C@H](CCC(=O)O)NC(=O)C(C)(C)NC(=O)[C@@H](N)Cc1ccc(O)cc1)[C@@H](C)O)[C@@H](C)O)[C@@H](C)CC)C(C)C)C(=O)N[C@@H](CC(N)=O)C(=O)N[C@@H](CCCCNC(=O)CCCCCNC(=O)CC[C@H](NC(=O)CCCCCNC(=O)CC[C@H](NC(=O)CC[C@H](NC(=O)CC[C@H](NC(=O)CC[C@H](NC(=O)CCCCCCCCCCCCCCCCCCC(=O)O)C(=O)O)C(=O)O)C(=O)O)C(=O)O)C(=O)O)C(=O)NC(C)(C)C(=O)N[C@H](C(=O)N[C@@H](CCCNC(=N)N)C(=O)N[C@@H](CCC(N)=O)C(=O)N[C@@H](CCCNC(=N)N)C(=O)N[C@@H](Cc1ccc(O)cc1)C(N)=O)[C@@H](C)O [Compound 175, Y-Aib-E-G-T-F-T-S-D-Y-S-I-Aib-L-E-K-Q-A-Q-Aib-A-F-V-R-H-L-I-N-K(1,3)-Aib-T-R-Q-R-Y-NH2.C20DA-gGlu-gGlu-gGlu-gGlu-AHX-gGlu-AHX(1,2)] | 0.2 | 8400 | 5.6 |  |  |
| CC[C@H](C)[C@H](NC(=O)[C@H](CC(C)C)NC(=O)[C@H](Cc1c[nH]cn1)NC(=O)[C@H](CCCNC(=N)N)NC(=O)[C@@H](NC(=O)[C@H](Cc1ccccc1)NC(=O)[C@H](C)NC(=O)C(C)(C)NC(=O)[C@H](CCC(N)=O)NC(=O)[C@H](C)NC(=O)[C@H](CCC(N)=O)NC(=O)[C@H](CCCCN)NC(=O)[C@H](CCC(=O)O)NC(=O)[C@H](CC(C)C)NC(=O)C(C)(C)NC(=O)[C@@H](NC(=O)[C@H](CO)NC(=O)[C@H](CC(C)C)NC(=O)[C@H](CC(=O)O)NC(=O)[C@H](CO)NC(=O)[C@@H](NC(=O)[C@H](Cc1ccccc1)NC(=O)[C@@H](NC(=O)CNC(=O)[C@H](CCC(=O)O)NC(=O)C(C)(C)NC(=O)[C@@H](N)Cc1ccc(O)cc1)[C@@H](C)O)[C@@H](C)O)[C@@H](C)CC)C(C)C)C(=O)N[C@@H](CC(N)=O)C(=O)N[C@@H](CCCCNC(=O)CC[C@H](NC(=O)[C@@H](N)CCCCNC(=O)CC[C@H](NC(=O)CC[C@H](NC(=O)CC[C@H](NC(=O)CC[C@H](NC(=O)CC[C@H](NC(=O)CCCCCCCCCCCCCCCCCCC(=O)O)C(=O)O)C(=O)O)C(=O)O)C(=O)O)C(=O)O)C(=O)O)C(=O)NC(C)(C)C(=O)N[C@H](C(=O)N[C@@H](CCCNC(=N)N)C(=O)N[C@@H](CCC(N)=O)C(=O)N[C@@H](CCCNC(=N)N)C(=O)N[C@@H](Cc1ccc(O)cc1)C(N)=O)[C@@H](C)O [Compound 60, Y-Aib-E-G-T-F-T-S-D-L-S-I-Aib-L-E-K-Q-A-Q-Aib-A-F-V-R-H-L-I-N-K(1,3)-Aib-T-R-Q-R-Y-NH2.C20DA-gGlu-gGlu-gGlu-gGlu-gGlu-eLys-gGlu(1,2)] |  | 9600 |  | 0.3 | 8 |
| CC[C@H](C)[C@H](NC(=O)[C@H](CC(C)C)NC(=O)[C@H](Cc1c[nH]cn1)NC(=O)[C@H](CCCNC(=N)N)NC(=O)[C@@H](NC(=O)[C@H](Cc1ccccc1)NC(=O)[C@H](C)NC(=O)C(C)(C)NC(=O)[C@H](CCC(N)=O)NC(=O)[C@H](C)NC(=O)[C@H](CCC(N)=O)NC(=O)[C@H](CCCCN)NC(=O)[C@H](CCC(=O)O)NC(=O)[C@H](CC(C)C)NC(=O)C(C)(C)NC(=O)[C@@H](NC(=O)[C@H](CO)NC(=O)[C@H](CC(C)C)NC(=O)[C@H](CC(=O)O)NC(=O)[C@H](CO)NC(=O)[C@@H](NC(=O)[C@H](Cc1ccccc1)NC(=O)[C@@H](NC(=O)CNC(=O)[C@H](CCC(=O)O)NC(=O)C(C)(C)NC(=O)[C@@H](N)Cc1ccc(O)cc1)[C@@H](C)O)[C@@H](C)O)[C@@H](C)CC)C(C)C)C(=O)N[C@@H](CC(N)=O)C(=O)N[C@@H](CCCCNC(=O)[C@@H](N)CCCCNC(=O)CC[C@H](NC(=O)CC[C@H](NC(=O)CC[C@H](NC(=O)CC[C@H](NC(=O)CC[C@H](NC(=O)CC[C@H](NC(=O)CC[C@H](NC(=O)CCCCCCCCCCCCCCCCCCC(=O)O)C(=O)O)C(=O)O)C(=O)O)C(=O)O)C(=O)O)C(=O)O)C(=O)O)C(=O)NC(C)(C)C(=O)N[C@H](C(=O)N[C@@H](CCCNC(=N)N)C(=O)N[C@@H](CCC(N)=O)C(=O)N[C@@H](CCCNC(=N)N)C(=O)N[C@@H](Cc1ccc(O)cc1)C(N)=O)[C@@H](C)O [Compound 135, Y-Aib-E-G-T-F-T-S-D-L-S-I-Aib-L-E-K-Q-A-Q-Aib-A-F-V-R-H-L-I-N-K(1,3)-Aib-T-R-Q-R-Y-NH2.C20DA-gGlu-gGlu-gGlu-gGlu-gGlu-gGlu-gGlu-eLys(1,2)] |  | 9200 |  | 0.5 |  |
